The values below come from patent US11980594B2, “Composition and method for treating a drug-resistant cancer” (NOVELWISE PHARMACEUTICAL CORPORATION, priority 2021, dated 2024).

Where two headings read alike, the source gives them in different places. Some results are limits rather than exact numbers.

For data set [1], the system named is RKO cells. Nature of the data set: CRC cell proliferation assay (CCK8), RKO. The class given is cell-based. The following applies: Homo sapiens. On the procedure:
(§1) Three CRC cell lines HT29, HCT116 and RKO were used in this study. The American Type Culture Collection (ATCC; Manassas, Va., USA) provided human CRC cell lines HT29 (ATCC HTB-38; mutant TP53, p.R273H; APC frame shift, p. E1554fs; wild type β-catenin), HCT116 (ATCC CCL-247; wild type TP53; wild type APC; deletion β-catenin, p. S45del) and RKO (ATCC CRL-2577; wild type TP53; wild type APC; wild type β-catenin). Three CRC cells lines as listed above were cultured in adherent culture condition, maintained at 37° C. inside the cell incubation containing 5% CO2. The two cell lines of HCT-116 and HT-29 cells were cultured in McCoy's 5A medium with supplemented 10% fetal bovine serum (Gibco; Thermo Fischer Scientific, Grand Island, N.Y., USA)), 1% penicillin and 1% streptomycin. RKO cell was cultured in MEM medium with supplemented 10% FBS, 1% penicillin, 1% streptomycin and 1% sodium pyruvate. The cell cultures were passaged by trypsinization every three days. BM-BMX (BMX), (E)-2-(4-Methoxybenzyloxy)-3-prenyl-4-methoxy-N-hydroxycinamide, was provided by Nature Wise Biotech & Medicals Corporation (Taipei, Taiwan).
(§2) We plated 4000 CRC cells per well in 96-well plates and allowed them to adhere overnight. To validate cell line responsiveness to BMX and TMZ monotherapy, the cells were treated with different doses of BMX or TMZ for 24, 48, and 72 hrs. To confirm cell responsiveness to the BMX-TMZ combination, cells were either treated with different doses of TMZ ([…]) with or without BMX (5 μM) for 24, 48, and 72 hrs or with different doses of BMX (0-10 μM) with or without TMZ (50 μM) for 24, 48, and 72 hrs. Following treatment, the absorption value was measured using a CCK8 kit (Targetmol, Shanghai, China) at the indicated time points. The results are reported as the mean±standard deviation of at least three replicates.

For data set [2], the system named is A172-R cells. As to the kind of experiment: Cell proliferation/viability assay (CCK8 kit; text says MTT), A172-R. It is filed as cell-based. The settings on record: Homo sapiens; A172-R cells (TMZ-resistant); single agent; FIG. 2B/2C; read-out: IC50 values (alone). The text has this: (§3) Four GBM cell lines U87, U87R, A172, and A172R were used in this study. The American Type Culture Collection (ATCC; Manassas, Va., USA) provided human GBM cell lines U87-MG (ATCC HTB-14; GBM of unknown origin) and A172 (ATCC CRL-1620; ATCC). U87R and A172R cells were obtained from Dr. Tsung-I Hsu and Dr. Jian-Ying Chung (The Ph.D. Program for Neural Regenerative Medicine, College of Medical Science and Technology, Taipei Medical University, Taipei, Taiwan). These cells were maintained in Dulbecco's modified Eagle medium (DMEM) with 10% fetal bovine serum (FBS) and 50 μM TMZ for at least 60 days. TMZ resistance in U87R and A172R cells was confirmed using the colony formation assay (FIG. 11). Cells were cultured in DMEM supplemented with 10% FBS, 100 U/mL penicillin, […] streptomycin (all from Gibco; Thermo Fisher Scientific, Waltham, Mass., USA) and maintained in a humidified incubator at 37° C. and 5% CO2. NBM-BMX (BMX), (E)-2-(4-Methoxybenzyloxy)-3-prenyl-4-methoxy-N-hydroxycinamide, was provided by NatureWise Biotech & Medicals Corporation (Taipei, Taiwan).
(§4) We plated 3000 GBM cells per well in 96-well plates and allowed them to adhere overnight. […] Following treatment, the absorption value was measured using a CCK8 kit (Targetmol, Shanghai, China) at the indicated time points. […]

Data set [3] relates to HCT116 cells. Nature of the data set: CRC cell proliferation assay (CCK8), HCT116. It is filed as cell-based. The following applies: Homo sapiens. The method, then:
as §1, §2

For data set [4], the system named is U87MG cells. As to the kind of experiment: Cell proliferation/viability assay (CCK8 kit; text says MTT), U87MG. It is filed as cell-based. The settings on record: Homo sapiens, U-87 MG, single agent, FIG. 2B/2C, read-out: IC50 values (alone).
Description: as §3, §4

For data set [5] the following is noted: statement from literature; cited from earlier work.
The test system of data set [6] is A172 cells. Nature of the data set: Cell proliferation/viability assay (CCK8 kit; text says MTT), A172. It is filed as cell-based. The following applies: Homo sapiens, A 172, single agent, FIG. 2B/2C, read-out: IC50 values (alone).
Description: as §3, §4

In data set [7] the test system is U87MG-R cells. Nature of the data set: Cell proliferation/viability assay (CCK8 kit; text says MTT), U87MG-R. The class given is cell-based. The settings on record: Homo sapiens; U87MG-R cells (TMZ-resistant); single agent; FIG. 2B/2C; read-out: IC50 values (alone).
Description: as §3, §4

In data set [8] the test system is MGMT. Nature of the data set: Western blot of MGMT in GBM-R cells. The class given is cell-based, human. The following applies: A172-R and U87MG-R cells; 50 μM TMZ without or with 5 and 10 μM BMX; 48 hrs; FIG. 5B, 5C. On the procedure:
The cells were collected and lysed in RIPA lysis buffer (EMD Millipore Billerica, Mass., USA, 10×RIPA buffer) containing a protease inhibitor. Protein concentration was determined using a protein assay kit (Bio-Rad Laboratories, Hercules, Calif., USA). The SDS loading buffer was mixed with the protein samples. Proteins (20 μg/lane) were separated using 8%-12% SDS-PAGE and transferred to a PVDF membrane, which was blocked with 5% bovine serum albumin at room temperature for 1 hr in tris-buffered saline (TBS)-Tween 20 (0.5%; TBS-T), incubated with primary antibodies overnight at […], and then incubated with horseradish peroxidase (HRP)-conjugated secondary antibodies at room temperature for 1 hr. After washing thoroughly with TBS-T, the HRP signals were detected with a chemical HRP substrate. Signal of each target protein was visualized by incubation with an enhanced chemiluminescent reagent and exposure to X-ray film.

Consider `COc1ccc(COc2c(/C=C/C(=O)NO)ccc(OC)c2CC=C(C)C)cc1` [BMX, (E)-2-(4-Methoxybenzyloxy)-3-prenyl-4-methoxy-N-hydroxycinamide], for which the IC50 in data set [1] (24 h, BMX alone, 24 hrs, read-out: IC50 of BMX) was 38.5 ± 3.5 µM; in data set [1] (24 h, TMZ 50 μM combined with different concentrations of BMX, 24 hrs, read-out: IC50 of BMZ), greater than 10 µM; in data set [1] (48 h, BMX alone, 48 hrs, read-out: IC50 of BMX), 7.2 ± 0.6 µM; in data set [1] (48 h, TMZ 50 μM combined with different concentrations of BMX, 48 hrs, read-out: IC50 of BMZ), 3.6 ± 0.4 µM; in data set [1] (72 h, BMX alone, 72 hrs, read-out: IC50 of BMX), 1.5 ± 0.2 µM; in data set [1] (72 h, TMZ 50 μM combined with different concentrations of BMX, 72 hrs, read-out: IC50 of BMZ), 0.9 ± 0.1 µM. Further, the IC50 is greater than 52.6 µM in data set [2]; 24.8 ± 2.5 µM in data set [3] (HCT-116, 24 h, BMX alone, 24 hrs, read-out: IC50 of BMX); greater than 10 µM in data set [3] (HCT-116, 24 h, TMZ 50 μM combined with different concentrations of BMX, 24 hrs, read-out: IC50 of BMZ); 7.7 ± 0.3 µM in data set [3] (HCT-116, 48 h, BMX alone, 48 hrs, read-out: IC50 of BMX); 3.2 ± 0.3 µM in data set [3] (HCT-116, 48 h, TMZ 50 μM combined with different concentrations of BMX, 48 hrs, read-out: IC50 of BMZ); 1.5 ± 0.3 µM in data set [3] (HCT-116, 72 h, BMX alone, 72 hrs, read-out: IC50 of BMX). The IC50 was 0.9 ± 0.1 µM in data set [3] (HCT-116, 72 h, TMZ 50 μM combined with different concentrations of BMX, 72 hrs, read-out: IC50 of BMZ); 29.8 ± 2.32 µM in data set [4]; 21 ± 2.34 µM in data set [6]; greater than 68.1 µM in data set [7]. Further, the blood-brain barrier penetration result in data set [5] is “ability to cross the blood-brain barrier”. Besides, in data set [8], the MGMT expression entry is “moderately decrease MGMT levels”.

For `Cn1nnc2c(C(N)=O)ncn2c1=O` [TMZ, Temozolomide, reference compound], the IC50 in data set [1] (24 h, BMX 5 μM combined with different doses of TMZ, 24 hrs, read-out: IC50 of TMZ) was greater than 400 µM; in data set [1] (24 h, TMZ alone, 24 hrs, read-out: IC50 of TMZ), greater than 1000 µM; in data set [1] (48 h, BMX 5 μM combined with different doses of TMZ, 48 hrs, read-out: IC50 of TMZ), 21.9 ± 2.7 µM; in data set [1] (48 h, TMZ alone, 48 hrs, read-out: IC50 of TMZ), 992 ± 52.4 µM; in data set [1] (72 h, TMZ alone, 72 hrs, read-out: IC50 of TMZ) it was 380 ± 40.3 µM; in data set [2], 595 ± 23.4 µM. In addition, the IC50 in data set [3] (HCT-116, 24 h, BMX 5 μM combined with different doses of TMZ, 24 hrs, read-out: IC50 of TMZ) was greater than 400 µM; in data set [3] (HCT-116, 24 h, TMZ alone, 24 hrs, read-out: IC50 of TMZ), greater than 1000 µM; in data set [3] (HCT-116, 48 h, BMX 5 μM combined with different doses of TMZ, 48 hrs, read-out: IC50 of TMZ) it was 41.6 ± 2.4 µM; in data set [3] (HCT-116, 48 h, TMZ alone, 48 hrs, read-out: IC50 of TMZ), 515 ± 21.6 µM; in data set [3] (HCT-116, 72 h, TMZ alone, 72 hrs, read-out: IC50 of TMZ) it was 192 ± 14.7 µM; in data set [4], 81 ± 1.68 µM. For the same molecule, the values for the IC50 in data set [6] and in data set [7] were 73.5 ± 3.65 µM and 303 ± 15.2 µM, respectively. For the same molecule, in data set [5], the blood-brain barrier penetration entry is reported as “good penetration of the blood-brain barrier”. In addition, the MGMT expression result in data set [8] was “moderately suppress MGMT expression”.
